# Measurements as given in patent US20200306210A1 (ZOGENIX INTERNATIONAL LIMITED, priority 2017, published 2020).
# Counter-ions that a name gives are not always drawn.
# Tests used:
# Type in all cases: in vivo, Human
# [1] = tested on: children and young adults with Dravet syndrome; test: Study 1: randomized, double-blind, placebo-controlled trial of ZX008, monthly convulsive seizure frequency (MCSF); conditions: for Longest seizure free interval, estimate of median treatment difference: Hodges-Lehman estimator; for Greater reduction in mean MCSF compared with placebo: 14-week treatment period; for Near-seizure freedom (0 or a single seizure during 14-week Treatment Period), % of subjects / Near-seizure freedom (0 or a single seizure during 14-week Treatment Period), number of subjects: post-hoc analysis
# Text: Human patients, age 2 to 18 years, inclusive, having a documented medical history to support a clinical diagnosis of Dravet syndrome and a history of seizures (either generalized tonic-clonic or unilateral clonic or bilateral clonic, and prolonged) were recruited, and selected for inclusion in the study according to criteria comprising a combination of age, physical and psychological characteristics, and (optionally) resistance to treatment with conventional therapies. Included subjects were assessed over the course of this 22-week study. The study protocols were reviewed and approved by the institutional review board or ethics committee for each study site before any study activation at the site. All patients or their legal representatives signed informed consent/assent prior to enrolling in the trial.
# Subjects had ≥4 convulsive seizures (tonic, tonic atonic, tonic-clonic, clonic) per 4-week period for past 12 weeks prior to screening, by parent/guardian report to investigator or investigator medical notes.
# Potential subjects enrolled in a 6-week baseline to establish seizure frequency and determine eligibility. Seizures were documented by parents or caregivers in an electronic study diary as to date, time of day, duration, and seizure type. To qualify for randomization each subject must have had ≥6 convulsive seizures during the baseline period with ≥2 in the first 3 weeks and ≥2 in the last 3 weeks. For this study convulsive seizures were defined as hemiclonic, tonic, clonic, tonic-atonic, generalized tonic-clonic, and focal with clear observable motor signs. The six-week Baseline Period started with a screening visit followed by an observation period where subjects were assessed for baseline seizure activity based on recordings of daily seizure activity entered into the diary.
# Randomization was double-blind and stratified by age group (<6 years, ≥6 years) across treatment groups. A placebo solution, identical in appearance and taste, was also provided. Daily doses were administered with food in 2 equal doses, one in the morning and one in the evening approximately 12 hours apart. […] The other groups underwent dummy titrations to maintain the blind. Patients were maintained on their final dose for an additional 12 weeks (the Maintenance Period). At the conclusion of the Treatment Period (Titration plus Maintenance), eligible patients electing to continue in an optional open-label extension (OLE) study underwent a 2-week transition period, whereas patients exiting the study underwent a 2-week taper and follow-up.
# ZX008 was supplied as an oral solution in concentrations of 1.25, 2.5, and 5 mg/mL. Subjects will be randomized to receive 1 of 2 doses of ZX008 (0.2 mg/kg/day, 0.8 mg/kg/day; up to 30 mg/day) or placebo. Study medication will be administered twice a day (BID) in equally divided doses with food. To the placebo group, as a negative control, an oral solution not containing fenfluramine was administered.
# Monthly convulsive seizure frequency (MCSF) was expressed per 28 days. The primary end point was the change in mean MCSF) between the baseline period and the combined titration and maintenance periods in subjects treated with ZX008 0.8 mg/kg/day compared with the group treated with placebo. Five key secondary end points were pre-specified: the comparison of the ZX008 0.2 mg/kg/day group with placebo for the change in MCSF between baseline and the combined titration and maintenance periods, comparison of both ZX008 groups independently with placebo on the proportion of subjects who achieved a ≥50% reduction from baseline in MCSF and the comparison of both ZX008 groups with placebo on the longest seizure-free interval observed in each group. A serial gatekeeping procedure was used to maintain the simultaneous type 1 error rate at α=0.05 across the analyses of the primary and 5 key secondary end points. […]
# [2] = tested on: children and young adults with Dravet syndrome; test: Study 1: Clinical Global Impression of Improvement (CGI-I)
# Procedure: CGI-S and CGI-I ratings were made by clinical investigators and parent/caregivers in a series of phase III trials of fenfluramine. CGI changes were measured in two randomized, controlled trials with results reported herein. Study 1 was conducted as described in Example 1 and CGI ratings were made according to a set schedule of visits made to the clinic. Tables of results and bar graphs of the statistical analyses of CGI ratings for Study 1 at visit twelve (day 113) are provided in FIGS. 1-4. […] Similar results were obtained with investigator CGI-I rating.
# (§1) In Study 1, subjects were assessed using Clinical Global Impression (CGI), allowing the parent/caregiver and principal investigator to assess improvement, as well as the Quality of Life in Childhood Epilepsy (QOLCE) Scale and the Pediatric Quality of Life Inventory (PedsQL) to measure changes in the quality of life of the subject. Comparisons between treatment groups were made using Wilcoxon rank sum tests.
# The CGI scale measures the change in the subject's clinical status from a specific point in time, i.e., the Baseline Period (and also referred to as the CGI-S, an initial ranking of severity). The CGI rating scale permits a global evaluation of the subject's improvement over time.
# [3] = tested on: children and young adults with Dravet syndrome; test: Study 1: quality of life (PedsQL, QOLCE); conditions: increase indicates improvement
# Procedure: as §1
# In 2003, Varni and colleagues published a study intended to determine the feasibility, reliability, and validity of the 23-item PEDSQL 4.0 (Pediatric Quality of Life Inventory) Generic Core Scales as a measure of pediatric population health for children and adolescents. The instrument was given to over 10,000 families with children age 2-16 in the state of California. From Varni, et al., parent reported changes in each of the scales and summary scores that could be considered clinically meaningful include a change of >1 SEM or Standard Error of Measurement as a cut point.
smiles,measurement,setting,value
"CCNC(C)Cc1cccc(C(F)(F)F)c1 (stereo not shown) [ZX008, fenfluramine hydrochloride]","Longest seizure free interval, estimate of median treatment difference",[1]; 0.2 mg/kg/day vs placebo,-5.0 days
same,Greater reduction in mean MCSF compared with placebo,[1]; 0.2 mg/kg/day,33.7%
same,Reduction from baseline in mean MCSF,"[1]; 0.2 mg/kg/day, after 6 weeks of treatment",−26.3%
same,Reduction from baseline in mean MCSF,"[1]; 0.2 mg/kg/day, after 10 weeks of treatment",−22.4%
same,Reduction from baseline in mean MCSF,"[1]; 0.2 mg/kg/day, after 14 weeks of treatment",−22.2%
same,"100% reduction (seizure freedom during entire 14-week treatment period), n of subjects","[1]; 0.2 mg/kg/day, n = 39",3
same,"Longest seizure free interval, median","[1]; 0.2 mg/kg/day, n = 39",14 days
same,"Percent change in convulsive seizure frequency per 28 days, LS means ± SE","[1]; 0.2 mg/kg/day, n = 39",−22.50 ± 9.28%
same,"Percent change in convulsive seizure frequency per 28 days, median","[1]; 0.2 mg/kg/day, n = 39",−37.6%
same,"Responder analysis ≥25% reduction in MCSF, % of subjects","[1]; 0.2 mg/kg/day, n = 39",(61.5%)
same,"Responder analysis ≥25% reduction in MCSF, OR vs placebo","[1]; 0.2 mg/kg/day, n = 39",3.80
same,"Responder analysis ≥25% reduction in MCSF, n of subjects","[1]; 0.2 mg/kg/day, n = 39",24
same,"Responder analysis ≥50% reduction in MCSF, % of subjects","[1]; 0.2 mg/kg/day, n = 39",(41.0%)
same,"Responder analysis ≥50% reduction in MCSF, OR vs placebo","[1]; 0.2 mg/kg/day, n = 39",10.10
same,"Responder analysis ≥50% reduction in MCSF, n of subjects","[1]; 0.2 mg/kg/day, n = 39",16
same,"Responder analysis ≥75% reduction in MCSF, % of subjects","[1]; 0.2 mg/kg/day, n = 39",(20.5%)
same,"Responder analysis ≥75% reduction in MCSF, OR vs placebo","[1]; 0.2 mg/kg/day, n = 39",10.46
same,"Responder analysis ≥75% reduction in MCSF, n of subjects","[1]; 0.2 mg/kg/day, n = 39",8
same,"Change in convulsive seizure frequency per 28 days, % Difference from placebo, LS mean (key secondary endpoint)","[1]; 0.2 mg/kg/day, n = 39, baseline vs titration + maintenance",−33.74%
same,"Near-seizure freedom (0 or a single seizure during 14-week Treatment Period), % of subjects",[1]; 0.2 mg/kg/day,12.8%
same,"Near-seizure freedom (0 or a single seizure during 14-week Treatment Period), number of subjects",[1]; 0.2 mg/kg/day,5
same,"Longest seizure free interval, estimate of median treatment difference",[1]; 0.8 mg/kg/day vs placebo,-11.5 days
same,Greater reduction in mean MCSF compared with placebo,[1]; 0.8 mg/kg/day,63.9%
same,Reduction from baseline in mean MCSF,"[1]; 0.8 mg/kg/day, after 6 weeks of treatment",−62.4%
same,Reduction from baseline in mean MCSF,"[1]; 0.8 mg/kg/day, after 10 weeks of treatment",−61.8%
same,Reduction from baseline in mean MCSF,"[1]; 0.8 mg/kg/day, after 14 weeks of treatment",−62.2%
same,"100% reduction (seizure freedom during entire 14-week treatment period), n of subjects","[1]; 0.8 mg/kg/day, n = 40",3
same,"Longest seizure free interval, median","[1]; 0.8 mg/kg/day, n = 40",20.5 days
same,"Percent change in convulsive seizure frequency per 28 days, median","[1]; 0.8 mg/kg/day, n = 40",−72.4%
same,"Responder analysis ≥25% reduction in MCSF, % of subjects","[1]; 0.8 mg/kg/day, n = 40",(92.5%)
same,"Responder analysis ≥25% reduction in MCSF, OR vs placebo","[1]; 0.8 mg/kg/day, n = 40",42.91
same,"Responder analysis ≥25% reduction in MCSF, n of subjects","[1]; 0.8 mg/kg/day, n = 40",37
same,"Responder analysis ≥50% reduction in MCSF, % of subjects","[1]; 0.8 mg/kg/day, n = 40",(70.0%)
same,"Responder analysis ≥50% reduction in MCSF, OR vs placebo","[1]; 0.8 mg/kg/day, n = 40",29.10
same,"Responder analysis ≥50% reduction in MCSF, n of subjects","[1]; 0.8 mg/kg/day, n = 40",28
same,"Responder analysis ≥75% reduction in MCSF, OR vs placebo","[1]; 0.8 mg/kg/day, n = 40",49.49
same,"Responder analysis ≥75% reduction in MCSF, n of subjects","[1]; 0.8 mg/kg/day, n = 40",18
same,"Change in convulsive seizure frequency per 28 days, % Difference from placebo, LS mean (primary endpoint)","[1]; 0.8 mg/kg/day, n = 40, baseline vs titration + maintenance",−63.89%
same,"Near-seizure freedom (0 or a single seizure during 14-week Treatment Period), % of subjects",[1]; 0.8 mg/kg/day,25%
same,"Near-seizure freedom (0 or a single seizure during 14-week Treatment Period), number of subjects",[1]; 0.8 mg/kg/day,10
same,"CGI-I Investigator rating 'very much improved' or 'much improved', %","[2]; 0.2 mg/kg/day, n = 39",(41.0%)
same,"CGI-I Parent/caregiver rating 'very much improved' or 'much improved', %","[2]; 0.2 mg/kg/day, n = 39",(41.0%)
same,"CGI-I Investigator rating 'very much improved' or 'much improved', %","[2]; 0.8 mg/kg/day, n = 40",(55.0%)
same,"CGI-I Parent/caregiver rating 'very much improved' or 'much improved', %","[2]; 0.8 mg/kg/day, n = 40",(55.0%)
same,"Pediatric Quality of Life Inventory (Peds QL) Total Score, change from baseline, mean ± SD",[3]; 0.2 mg/kg/day,6.8 ± 11.3
same,"Pediatric Quality of Life Inventory (Peds QL) Total Score, change from baseline, mean ± SD",[3]; 0.8 mg/kg/day,5.9 ± 15.1
